Here are results for five compounds from US5922871A, “Terephthalamide derivatives” (Dongwha Pharmaceutical Ind. Co., Ltd., priority 1997, dated 1999).

Each structure is given as a SMILES string.

Experiment [1] addresses T1, HBV polymerase reverse transcriptase (HBV-RT) (Hepatitis B virus genotype D subtype ayw, UniProt P03156).
T1 construct: made in house; host or cells: E. coli
Kind of experiment: inhibitory activity against HBV polymerase in vitro (reverse transcriptase activity). The class given is biochemical. As to conditions: read-out: Inhibitory effect of HBV-RT; for inhibition at 0.1 µg/mL: 0.1 μg/ml; for inhibition at 1 µg/mL: 1 μg/ml. From the text: Experiment 1: The inhibitory activity against HBV polymerase in vitro.
Recently, the inventors of the present invention have produced a recombinant HBV polymerase that is expressed from E.coli transformant, measured its enzyme activity and filed patent applications thereof [Korean Patent Application Nos. 94-3918, 96-33998 and 96-63255].
The inventions have established a method of measuring the reverse transcriptase activity of HBV polymerase in vitro. The fundamental principle is the same as the ELISA method, and after reacting the substrate with biotin- and DIG-modified nucleotide, a method of recognizing the polymerized substrate as anti-DIG antibody with peroxidase was used. […] and 20 μ of test compound were mixed and reacted at 14~30° C. for 18~24 hours. Then, the inhibitory effect of test compound against reverse trascriptase activity in the HBV polymerase was examined, compared with the results of control tests without the test compound.

For experiment [2], the target named is T2, RNase H of HBV polymerase (HBV-RNase H) (Hepatitis B virus ayw/France/Tiollais/1979, UniProt P03156).
T2 construct: amylose/maltose step implies MBP fusion
The experiment in a line: inhibitory effects against RNase H activity of HBV polymerase. The class given is biochemical. The following applies: read-out: Inhibitory effect of HBV-RNase H; for inhibition at 0.1 µg/mL: 0.1 μg/ml; for inhibition at 1 µg/mL: 1 μg/ml. As to the method: Experiment 2: The inhibitory effects against RNase H activity of HBV polymerase.
1) Expression of the RNase H domain derived from human HBV polymerase
E.coli NM 522 was transformed by the expression vector pMRH respectively and the transformants were cultured in LB medium at 37° C., overnight. These growing cultures were diluted 1:100, inoculated into a glucose rich medium and incubated until OD600 reached 0.5. Then IPTG (isopropylthiogalactoside) was added into the medium of which the fine concentration was 0.5 mM. The above growing cultures were incubated again at 20° C. for 16 hours and the RNase H domain was expressed.
The above cultured broth was centrifuged for 10 minutes at 3,000 rpm and the cell pellet was washed with 10 ml of TNE column buffer (10 mN Tris-Cl, pH 8.0, 200 mM NaCl, 1 mM EDTA), and resuspended in 10 ml of TNE column buffer. The cells were freezed and thawed 4 times repeatedly, and then disrupted by sonication for 10 seconds 3 times. The crude extract prepared in the above process was centrifuged for 30 minutes at 13,000 rpm, 4° C. and the supernatant was separated. The above process was repeated 2 times and then the supernatant passed the amylose resin. The resin was washed by using column buffer with 50 times of resin volume, and the RNase H domain was eluted by using buffer containing 10 mM maltose.
In addition, the RNase H domain produced from the expression vector pMRH was purified by using histidine tag affinity column, because RNase H has a histidine tag at the C-terminus. The resin (Ni-NTA, QIAGEN) used in the histidine tag affinity column was activated by using sonication buffer (50 mM sodium phosphate, pH 8.0, 300 mM sodium chloride) and 4~5 ml of the activated resin was charged in the glass tube whose diameter was about 1 cm. The protein sample obtained from above description passed the resin at the 0.1 ml/ min flow rate and the column was washed by using washing buffer with the 100~200 times volume of protein sample (50 mM sodium phosphate, pH 6.0, 300 mM sodium chloride, 10% glycerol). The recombinant protein was eluted by washing the column with concentration gradient of 0.01~0.5 M imidazole.
As a result, the active RNase H domain was separated from the histidine tag affinity column at 30 mM concentration of imidazole. The purified RNase H domain was mixed with 50% glycerol for storage at -20° C. after the removal of imidazole from it and employed fol the screening of HBV inhibitors.
2) Preparation of the substrate of the RNase H enzyme
In order to identify the RNase H activity, RNA/DNA complex which can be used as a substrate of the RNase H enzyme was prepared by performing in vitro transcription with […].
3) Screening of active inhibitors against RNase H
The RNase H activity was measured by using recombinant RNase H enzyme and radiolabled RNA/DNA hybrid. In order to measure the RNase H activity, 1 μg of RNase H enzyme and test compound were mixed with buffer solution containing 40 mM Tris-Cl (pH 8.0), 4 mM magnesium chloride, 40 mM potassium chloride and 2 mM DTT. The mixture was pretreated on ice for 10 minutes. After pretreatment is completed, RNA/DNA hybrid was added to incubate at 37° C. for 3 hours. After the reaction was stopped, 7.5 M ammonium acetate in a volume of 1/2 and ethanol in a 3-fold volume were added. The above reaction mixture was incubated at -20° C. for more than 2 hours and centrifuged for 15 minutes at 4° C., 13,000 rpm. The supernatant was obtained and the radioactive signal of supernatant was measured by scintillation counter.
As a control, water was added instead of test compound and the inhibitory activity was calculated to compare with the control, when the radioactivity intensity on each test compound, was obtained.

The target of experiment [3] is T3, HIV reverse transcriptase (HIV-RT) (Human immunodeficiency virus type 1 group M subtype B, UniProt P04585).
T3 construct: purchased Boehringer Mannheim
Kind of experiment: in vitro inhibition test against HIV reverse transcriptase. The experiment is classed as biochemical, HIV (AIDS virus). As to conditions: read-out: Inhibitory effect of HIV-RT; for inhibition at 0.1 µg/mL: 0.1 μg/ml; for inhibition at 1 µg/mL: 1 μg/ml. As to the method:
Experiment 3: The in vitro inhibition test against HIV reverse transcriptase
The inhibitory activity in vitro was measured using a non-radioactive reverse transcriptase assay Kit (Boehringer Mannheim).
At first, 20 μl(40 ng) HIV-RT was added to the wells coated with streptavidin and with the addition of 20 μl, reaction mixture containing template/primer hybrid poly(A)/oligo(dT)15 and DIG-(digoxigenin)-dUTP, biotin-dUTP and TTP, 20 μl test compound was added and reacted at 37° C. for 1 hour. The control without test compound was used for the comparison of related activity. Since DNA containing nucleotide labeled with digoxigenin and biotine was prepared by the action of HIV-RT, it was combined with streptavidin coated at the bottom of the wells. After the reaction was completed, remaining impurities were removed by washing each well with 20 μl buffer solution (pH 7.0) for 30 seconds 5 times and with the addition of 200 μl anti-DIG-POD antibody, the mixture was reacted at 37° C. for 1 hour. For the removal of remaining impurities again, the reacting solution was washed with a buffer solution and with the addition of 200μl ABTS™ each, a substrate of POD(peroxidase), the solution was reacted at room temperature for 30 minutes. The absorbance was read by ELISA reader at 405 nm for the assay of reverse transcriptase activity and its inhibition activity.

T1 sequence (P03156 whole entry): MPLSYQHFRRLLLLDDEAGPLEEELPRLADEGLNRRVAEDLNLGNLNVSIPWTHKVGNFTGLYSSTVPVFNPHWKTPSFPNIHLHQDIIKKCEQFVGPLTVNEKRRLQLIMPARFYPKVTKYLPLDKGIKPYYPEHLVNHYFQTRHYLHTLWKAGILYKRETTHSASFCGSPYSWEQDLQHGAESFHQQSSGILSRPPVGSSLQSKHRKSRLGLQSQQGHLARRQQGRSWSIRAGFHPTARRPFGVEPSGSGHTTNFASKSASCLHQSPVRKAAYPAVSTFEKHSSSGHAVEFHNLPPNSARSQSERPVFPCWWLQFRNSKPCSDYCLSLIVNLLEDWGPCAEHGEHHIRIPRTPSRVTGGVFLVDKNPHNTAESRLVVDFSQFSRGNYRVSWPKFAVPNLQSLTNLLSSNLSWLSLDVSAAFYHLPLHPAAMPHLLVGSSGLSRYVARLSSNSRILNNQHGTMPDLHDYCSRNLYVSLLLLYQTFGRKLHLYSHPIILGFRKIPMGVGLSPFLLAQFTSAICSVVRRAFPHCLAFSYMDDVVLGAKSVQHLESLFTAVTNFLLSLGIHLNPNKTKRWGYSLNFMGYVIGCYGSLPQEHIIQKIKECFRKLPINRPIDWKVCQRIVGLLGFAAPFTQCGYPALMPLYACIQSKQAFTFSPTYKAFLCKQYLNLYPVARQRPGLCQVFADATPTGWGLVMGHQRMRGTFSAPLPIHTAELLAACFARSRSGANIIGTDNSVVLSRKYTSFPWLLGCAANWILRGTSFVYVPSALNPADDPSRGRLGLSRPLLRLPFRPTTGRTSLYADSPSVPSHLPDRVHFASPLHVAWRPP
T2 sequence (P03156 680-832): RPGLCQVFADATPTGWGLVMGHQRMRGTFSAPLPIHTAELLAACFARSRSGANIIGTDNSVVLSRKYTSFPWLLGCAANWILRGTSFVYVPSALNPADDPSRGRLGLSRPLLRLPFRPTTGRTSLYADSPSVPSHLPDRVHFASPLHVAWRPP

For the compound `CC(C)Nc1cccnc1N1CCN(C(=O)c2ccc(C(=O)N3CCN(CCO)CC3)cc2)CC1` [Compound No. 26, 4-(2-Hydroxyethyl)-1-[4-[1-[3-(isopropylamino)-2-pyridyl]piperazin-4-yl-carbonyl]benzoyl]piperazine], the inhibition at 0.1 µg/mL stood at 32% in experiment [1], 66% in experiment [2] and 45% in experiment [3]. For the same compound, the inhibition at 1 µg/mL is 54% in experiment [1], 95% in experiment [2] and 55% in experiment [3].
Consider `CC(C)Nc1cccnc1N1CCN(C(=O)c2ccc(C(=O)NC(CO)CO)cc2)CC1` [Compound No. 52, 1-[N-[Bis(hydroxymethyl)methyl]carbamoyl]-4-[1-[3-(isopropylamino)-2-pyridyl]piperazin-4-yl-carbonyl]benzene], for which the inhibition at 0.1 µg/mL in experiment [1] is 52%; in experiment [2] it was 41%; in experiment [3], 57%. Moreover, the inhibition at 1 µg/mL in experiment [1] was 63%; in experiment [2] it was 58%; in experiment [3], 61%.
With `CC(C)Nc1cccnc1N1CCN(C(=O)c2ccc(C(=O)NCCO)cc2)CC1` [Compound No. 1, 1-[N-(2-Hydroxyethyl)carbamoyl]-4-[1-[3-(isopropylamino)-2-pyridyl]piperazin-4-yl-carbonyl]benzene], the results for the inhibition at 0.1 µg/mL in experiment [1], in experiment [2] and in experiment [3] were 53%, 11% and 41%, respectively. Further, the inhibition at 1 µg/mL in experiment [1] was determined as 55%; in experiment [2], 80%; in experiment [3], 62%.
`CC(C)Nc1cccnc1N1CCN(C(=O)c2ccc(C(=O)N(C)CC3OCCO3)cc2)CC1` [Compound No. 71, 1-[N-[(1,3-Dioxolan-2-yl)methyl]-N-methylcarbamoyl]-4-[1-[3-(isopropylamino)-2-pyridyl]piperazin-4-yl-carbonyl]benzene]: the inhibition at 0.1 µg/mL in experiment [1] stood at 35%; in experiment [2], 56%; in experiment [3] it was 68%. Moreover, the inhibition at 1 µg/mL in experiment [1] amounted to 51%; in experiment [2] it was 62%; in experiment [3], 70%.
For the compound `CC(C)Nc1cccnc1N1CCN(C(=O)c2ccc(C(=O)N(CCO)CCO)cc2)CC1` [Compound No. 12, 1-[N,N-Bis(2-hydroxyethyl)carbamoyl]-4-[1-[3-(isopropylamino)-2-pyridyl]piperazin-4-yl-carbonyl]benzene], the inhibition at 0.1 µg/mL in experiment [1] is 52%; in experiment [2] it was 86%; in experiment [3] it was 46%. The inhibition at 1 µg/mL in experiment [1] is 63%; in experiment [2], 91%; in experiment [3], 52%.
